Each compound was assayed against T1, Acetylcholinesterase (Bos taurus, UniProt P23795) (assay: Inhibition of bovine erythrocytes AChE using acetylthiocholine iodide as substrate incubated for 15 to 20 mins by Ellman's methods). Conditions: not given.
T1 sequence (P23795 whole entry): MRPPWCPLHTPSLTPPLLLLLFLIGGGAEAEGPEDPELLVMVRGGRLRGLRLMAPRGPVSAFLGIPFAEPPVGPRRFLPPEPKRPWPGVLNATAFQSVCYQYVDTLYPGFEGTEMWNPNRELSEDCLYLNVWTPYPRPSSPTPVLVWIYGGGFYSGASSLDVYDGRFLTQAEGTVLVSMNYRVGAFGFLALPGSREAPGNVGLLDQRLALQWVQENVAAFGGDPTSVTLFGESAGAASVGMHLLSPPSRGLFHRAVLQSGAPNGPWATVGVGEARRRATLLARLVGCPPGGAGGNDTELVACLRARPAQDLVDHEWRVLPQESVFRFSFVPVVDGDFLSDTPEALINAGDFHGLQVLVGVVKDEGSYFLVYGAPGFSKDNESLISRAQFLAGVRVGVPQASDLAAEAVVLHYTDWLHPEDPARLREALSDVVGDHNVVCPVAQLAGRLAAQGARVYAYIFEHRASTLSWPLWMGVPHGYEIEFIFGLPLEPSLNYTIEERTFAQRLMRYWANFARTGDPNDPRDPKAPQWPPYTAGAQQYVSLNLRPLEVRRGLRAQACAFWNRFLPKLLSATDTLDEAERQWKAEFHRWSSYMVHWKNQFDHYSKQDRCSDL
Design: species or system Erythrocyte

With `C/C=C1\[C@H]2C=C(C(=O)OC)C[C@]1(N)c1ccc(=O)[nH]c1C2` as the compound, how does the IC50 read?
The IC50 was 4200 nM.

For `C/C=C1\[C@H]2C=C(C)C[C@]1(N)c1ccc(=O)[nH]c1C2` [HUPERZINE A], which IC50 is on record?
Its IC50 is 100 nM.

With `C/C=C1\[C@H]2C=C(CO)C[C@]1(N)c1ccc(=O)[nH]c1C2` as the compound, how does the IC50 read?
The IC50 was 2100 nM.

Each compound was assayed against T2, Acetylcholinesterase (Bos taurus) (UniProt P23795) (assay: Inhibition of bovine erythrocytes AChE using acetylthiocholine iodide as substrate at 100 uM incubated for 15 to 20 mins by Ellman's methods relative to control). Conditions: Erythrocyte, time min 15-20.
T2 sequence (whole entry): T1 sequence (P23795 whole entry)
Assay type: tissue-based

With `C[C@@H]1C[C@@]2(O)C[C@H](OC(=O)CCc3ccc(O)cc3)[C@@H]3CCCN4CC[C@H]5O[C@@]52[C@]34C1` as the compound, how does the inhibition read?
The inhibition was < 50%.

With `C[C@H]1C[C@@]23NCCC[C@@H]2[C@](O)(Cc2ncccc23)[C@H]1O` as the compound, how does the inhibition read?
Its inhibition is < 50%.

Which inhibition does the source give for `O=c1ccc2c([nH]1)C[C@@H]1C[C@@H](CO)C[C@]23NCCC[C@H]13` here?
Its inhibition is < 50%.

For `C/C=C1\[C@@H]2Cc3[nH]c(=O)ccc3[C@@]1(N)C[C@H](CO)C2`, which inhibition is on record?
Its inhibition is < 50%.

For `C[C@H]1C[C@]23C4=CCCN2CCC[C@H]3[C@@H](O)C[C@@H]4[C@@H]1O`, which inhibition is on record?
The inhibition was < 50%.

With `C[C@H]1C[C@@]23NCCC[C@@H]2[C@H](Cc2ncccc23)[C@@H]1O` as the compound, how does the inhibition read?
Its inhibition is < 50%.

For `CO[C@@]12C[C@@H]3C[C@@H](C)C[C@@]4(O1)N1CCC[C@@]2(O)[C@]34CCC1`, which inhibition is on record?
Its inhibition is < 50%.

Which inhibition does the source give for `C[C@H]1CC2=[N+]([O-])CCC[C@]23c2cccnc2C[C@@H]3[C@@H]1O` here?
Its inhibition is < 50%.

Which inhibition does the source give for `CC(=O)NC1=C2CCC[N+]3([O-])CCC[C@]4(O)[C@H](C1)C[C@@H](C)C[C@]243` (stereo partly specified) here?
Its inhibition is < 50%.

With `C[C@H]1C[C@]23C4=CCCN2CCC[C@@H]3[C@H](O)[C@@H](O)[C@@H]4[C@@H]1O` as the compound, how does the inhibition read?
Its inhibition is < 50%.

How did the inhibition turn out when `C[C@@H]1C[C@H]2C[C@@H]3O[C@]24[C@H](O)CCN2CCC[C@@H]3[C@]24C1` was run?
Its inhibition is < 50%.

How did the inhibition turn out when `C[C@H]1C=C2N3CCC[C@@H]4C(=O)C[C@H]([C@@H]1O)[C@]24CCC3` was run?
Its inhibition is < 50%.

For `C[C@H]1C[C@@]23[C@H]4CCCN2CC[C@H]2O[C@]23[C@H](C[C@@H]4OC(=O)CCc2ccc(O)cc2)[C@@H]1O`, which inhibition is on record?
Its inhibition is < 50%.

With `C[C@@H]1C[C@H]2Cc3[nH]c(=O)ccc3[C@@](N)(C1)/C2=C/CO` as the compound, how does the inhibition read?
The inhibition was < 50%.

`C[C@@H]1C[C@H]2C[C@H](OC(=O)CCc3ccc(O)cc3)[C@@H]3CCCN4CC[C@H]5O[C@]25[C@]34C1` was tested. Which inhibition did it give?
Its inhibition is < 50%.

`C[C@@H]1C[C@@]2(O)C[C@@H]3O[C@H]4CC[N+]5([O-])CCC[C@@H]3[C@@]5(C1)[C@]42O` (stereo partly specified) was tested. Which inhibition did it give?
Its inhibition is < 50%.

Which inhibition does the source give for `O=C1C[C@@H]2C=C(CO)C[C@@]34[C@@H]1CCCN3CCC[C@H]24` here?
Its inhibition is < 50%.

`C[C@@H]1C[C@H]2Cc3[nH]c(=O)ccc3[C@]3(C1)NCC[C@@H](O)[C@H]23` was tested. Which inhibition did it give?
Its inhibition is < 50%.
